Results: patent EP4494656A1 (priority 2023, dated 2025)
Numbered stars: 1 amine (or outer) side, 2 acyl side, 3 side chain; on linkers, the order of the positions; unused ones are H or OH. Bridge positions count the residues as written; N and C are the ends. Square brackets hold non-standard residues; d marks the D form. Peptide text beside a SMILES is read from it. * marks the point of attachment. Adda = CO[C@@H](Cc1ccccc1)[C@@H](C)/C=C(C)/C=C/[C@H](N[*:1])[C@H](C)C(=O)[*:2]; dAsp(3S-Me) = C[C@H](C(=O)[*:3])[C@@H](N[*:1])C(=O)[*:2]; d(γGlu) = O=C(O)[C@@H](CCC(=O)[*:2])N[*:1]; NMeDha = C=C(NC)C(=O)O; Propargyl = C#CC*

Key:
[1] = tested on: OATP1B1; assay: in vitro; conditions: human
[2] = tested on: OATP1B3; assay: in vitro; conditions: human
[3] = target: protein phosphatase-1 catalytic subunit (a-Isoform from rabbit, Sigma-Aldrich) (Oryctolagus cuniculus, UniProt P62139)
[4] = tested on: HEK293 OATP1B1+
[5] = tested on: HEK293 OATP1B3+
[6] = target: type 1 protein phosphatase; conditions: cited from earlier work
[7] = target: type 2A protein phosphatase; conditions: cited from earlier work

protein phosphatase-1 catalytic subunit (a-Isoform from rabbit, Sigma-Aldrich), sequence (P62139 whole entry, looked up, canonical isoform): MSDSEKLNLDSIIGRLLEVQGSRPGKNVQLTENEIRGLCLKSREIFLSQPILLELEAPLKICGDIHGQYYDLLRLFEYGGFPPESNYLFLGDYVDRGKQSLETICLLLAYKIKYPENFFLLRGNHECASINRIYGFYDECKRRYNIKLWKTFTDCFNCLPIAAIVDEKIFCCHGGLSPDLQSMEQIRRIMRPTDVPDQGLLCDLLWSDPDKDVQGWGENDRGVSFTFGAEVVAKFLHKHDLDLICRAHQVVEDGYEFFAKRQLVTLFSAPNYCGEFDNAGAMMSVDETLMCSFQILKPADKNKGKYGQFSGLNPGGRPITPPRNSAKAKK

Structure (SMILES)	IC50 [1] [nM]	IC50 [2] [nM]	lower IC50_PPI compared to the IC50_PPI of the MC-LR reference cytotoxin [3]	lower IC50_PPI compared to the IC50_PPI of the corresponding MC-PrgTyr-Arg monomer [3]	increase of IC50_OATP1B1 compared to the corresponding MC-PrgTyr-Arg monomer [4]	increase of IC50_OATP1B1 in comparison to MC-LR [4]	increase of IC50_OATP1B3 compared to the MC-PrgTyr-Arg monomer [5] [fold]	increase of IC50_OATP1B3 in comparison to MC-LR [5] [fold]	IC50 [6] [nM]	IC50 [7] [nM]	Ratio of IC50_OATP1B1/ IC50_PPI [4]	IC50 ([4]; read-out: IC50_OATP1B1 ± SE) [nM]	Ratio of IC50_OATP1B3/ IC50_PPI [5]	IC50 ([5]; read-out: IC50_OATP1B3 ± SE) [nM]
C#CCOc1ccc(C[C@@H]2NC(=O)[C@@H](C)NC(=O)C(=C)N(C)C(=O)CC[C@H](C(=O)O)NC(=O)[C@@H](C)[C@H](/C=C/C(C)=C/[C@H](C)[C@H](Cc3ccccc3)OC)NC(=O)[C@H](CCCNC(=N)N)NC(=O)[C@@H](C)[C@H](C(=O)O)NC2=O)cc1 [MC-PrgTyr-Arg, cyclo(D-Ala-PrgTyr-D-MeAsp-Arg-Adda-D-Glu-Mdha), reference compound] (R[Adda][d(γGlu)][NMeDha][dA]Y(Propargyl)[dAsp(3S-Me)]-OH; lactam N-7)	82.2 ± 4.5	40.4 ± 36.6	–	–	–	–	–	–	–	–	–	–	–	–
C=C1C(=O)N[C@H](C)C(=O)N[C@@H](Cc2ccc(OCc3cn(CC(=O)N4CCN(C(=O)Cn5cc(COc6ccc(C[C@@H]7NC(=O)[C@@H](C)NC(=O)C(=C)N(C)C(=O)CC[C@H](C(=O)O)NC(=O)[C@@H](C)[C@H](/C=C/C(C)=C/[C@H](C)[C@H](Cc8ccccc8)OC)NC(=O)[C@H](CCCNC(=N)N)NC(=O)[C@@H](C)[C@H](C(=O)O)NC7=O)cc6)nn5)CC4)nn3)cc2)C(=O)N[C@@H](C(=O)O)[C@H](C)C(=O)N[C@@H](CCCNC(=N)N)C(=O)N[C@@H](/C=C/C(C)=C/[C@H](C)[C@H](Cc2ccccc2)OC)[C@H](C)C(=O)N[C@@H](C(=O)O)CCC(=O)N1C [MC-PrgTyr-Arg-Dimer-1]	2000 ± 711	1060 ± 302	about 10 fold	more than 20 fold	24 fold	more than 116 fold	26	134	–	–	–	–	–	–
C=C1C(=O)N[C@H](C)C(=O)N[C@@H](CC(C)C)C(=O)N[C@@H](C(=O)O)[C@H](C)C(=O)N[C@@H](CCCNC(=N)N)C(=O)N[C@@H](/C=C/C(C)=C/[C@H](C)[C@H](Cc2ccccc2)OC)[C@H](C)C(=O)N[C@@H](C(=O)O)CCC(=O)N1C [MC-LR, microcystin-LR, reference compound] (R[Adda][d(γGlu)][NMeDha][dA]L[dAsp(3S-Me)]-OH; lactam N-7)	–	–	–	–	–	–	–	–	0.03	0.04	6.3	17.1 ± 2.1	2.9	7.9 ± 1.7
C=C1C(=O)N[C@H](C)C(=O)N[C@@H](Cc2ccc(OCc3cn(CC(=O)N4CCN(C(=O)[C@H](CCCCN)n5cc(COc6ccc(C[C@@H]7NC(=O)[C@@H](C)NC(=O)C(=C)N(C)C(=O)CC[C@H](C(=O)O)NC(=O)[C@@H](C)[C@H](/C=C/C(C)=C/[C@H](C)[C@H](Cc8ccccc8)OC)NC(=O)[C@H](CCCNC(=N)N)NC(=O)[C@@H](C)[C@H](C(=O)O)NC7=O)cc6)nn5)CC4)nn3)cc2)C(=O)N[C@@H](C(=O)O)[C@H](C)C(=O)N[C@@H](CCCNC(=N)N)C(=O)N[C@@H](/C=C/C(C)=C/[C@H](C)[C@H](Cc2ccccc2)OC)[C@H](C)C(=O)N[C@@H](C(=O)O)CCC(=O)N1C [MC-PrgTyr-Arg-Dimer-2]	> 3000	1850 ± 309	about 16 fold	more than 50 fold	more than 36 fold	more than 175 fold	45	234	–	–	–	–	–	–
